These results are taken from ChEMBL document CHEMBL4813963, “Discovery of pyrazolo-thieno[3,2-d]pyrimidinylamino-phenyl acetamides as type-II pan-tropomyosin receptor kinase (TRK) inhibitors: Design, synthesis, and biological evaluation” (Eur J Med Chem, 2021).

One series deals with KM12. The series is described as follows: Cytotoxicity against human KM12 cells assessed as reduction in cell viability incubated for 72 hrs by resazurin based assay. The settings on record: KM12, 72 h. In kind it is functional.
Series [1] has as its target T1, High affinity nerve growth factor receptor (Homo sapiens, UniProt P04629). The series is described as follows: Inhibition of recombinant His-tagged human TRKA (441 to 796 residues) expressed in baculovirus expression system at 20 uM using 5-FAM-EEPLYWSFPAKKK-CONH2 as substrate preincubated for 1 hr followed by substrate addition in presence of ATP by mobility shift assay relative to control.
Target sequence in this assay (P04629 33-796 limits assumed): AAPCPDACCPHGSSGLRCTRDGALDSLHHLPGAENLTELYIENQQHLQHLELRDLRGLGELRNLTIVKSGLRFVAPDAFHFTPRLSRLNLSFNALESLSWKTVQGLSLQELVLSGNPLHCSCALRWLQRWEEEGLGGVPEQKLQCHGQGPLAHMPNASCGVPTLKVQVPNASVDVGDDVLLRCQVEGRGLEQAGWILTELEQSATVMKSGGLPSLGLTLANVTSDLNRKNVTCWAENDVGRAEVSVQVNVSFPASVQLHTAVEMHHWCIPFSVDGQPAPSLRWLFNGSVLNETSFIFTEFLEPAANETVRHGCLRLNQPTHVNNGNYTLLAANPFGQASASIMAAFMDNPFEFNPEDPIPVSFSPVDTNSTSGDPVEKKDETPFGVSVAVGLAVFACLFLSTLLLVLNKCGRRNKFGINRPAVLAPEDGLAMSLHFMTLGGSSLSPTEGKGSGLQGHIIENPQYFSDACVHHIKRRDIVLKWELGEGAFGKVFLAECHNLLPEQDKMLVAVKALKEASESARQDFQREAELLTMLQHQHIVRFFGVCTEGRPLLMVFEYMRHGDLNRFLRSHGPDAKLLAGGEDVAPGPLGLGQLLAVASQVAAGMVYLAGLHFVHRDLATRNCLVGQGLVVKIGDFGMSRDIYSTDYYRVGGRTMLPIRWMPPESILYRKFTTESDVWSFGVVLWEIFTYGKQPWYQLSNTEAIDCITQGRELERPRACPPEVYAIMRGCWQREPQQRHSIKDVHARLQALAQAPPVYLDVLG

In series [2] the target is T1, High affinity nerve growth factor receptor. The series is described as follows: Inhibition of recombinant His-tagged human TRKA (441 to 796 residues) expressed in baculovirus expression system using 5-FAM-EEPLYWSFPAKKK-CONH2 as substrate preincubated for 1 hr followed by substrate addition in presence of ATP by mobility shift assay.
Target sequence in this assay (P04629 whole entry, the tested form may be a part): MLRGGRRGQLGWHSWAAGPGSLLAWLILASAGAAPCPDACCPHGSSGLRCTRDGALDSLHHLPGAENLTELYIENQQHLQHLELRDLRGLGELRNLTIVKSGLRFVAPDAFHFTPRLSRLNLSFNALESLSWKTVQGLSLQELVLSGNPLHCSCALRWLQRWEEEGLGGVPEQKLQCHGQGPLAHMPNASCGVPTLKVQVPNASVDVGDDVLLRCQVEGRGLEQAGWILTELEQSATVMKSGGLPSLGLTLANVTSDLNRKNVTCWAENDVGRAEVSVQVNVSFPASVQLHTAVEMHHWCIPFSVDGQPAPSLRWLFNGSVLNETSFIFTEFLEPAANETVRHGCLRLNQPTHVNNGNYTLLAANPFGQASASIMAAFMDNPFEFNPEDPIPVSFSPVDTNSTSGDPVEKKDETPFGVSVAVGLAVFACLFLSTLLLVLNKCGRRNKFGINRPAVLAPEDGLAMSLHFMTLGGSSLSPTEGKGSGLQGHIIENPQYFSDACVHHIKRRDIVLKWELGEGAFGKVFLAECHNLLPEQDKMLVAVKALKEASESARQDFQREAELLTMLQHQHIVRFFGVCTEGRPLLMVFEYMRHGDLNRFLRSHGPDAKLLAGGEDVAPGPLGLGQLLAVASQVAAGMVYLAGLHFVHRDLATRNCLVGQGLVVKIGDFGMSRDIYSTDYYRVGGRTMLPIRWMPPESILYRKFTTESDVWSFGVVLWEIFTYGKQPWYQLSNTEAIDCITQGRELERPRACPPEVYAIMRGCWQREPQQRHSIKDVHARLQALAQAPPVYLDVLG
Series [3] addresses Serine/threonine-protein kinase Nek2 (Homo sapiens, UniProt P51955). The series is described as follows: Inhibition of NEK2 (unknown origin).
Series [4] in a line: Permeability of compound in human brain like endothelial cells BBB model at 10 uM after 120 mins by LC-MS analysis. It is filed as ADME, cell-based. To be noted: read-out: permeability (converted).
For series [5], the target named is Epidermal growth factor receptor (Homo sapiens, UniProt P00533). The series is described as follows: Inhibition of EGFR (unknown origin).
In a further series the target is Aurora kinase B (Homo sapiens, UniProt Q96GD4). The series is described as follows: Inhibition of Aurora B (unknown origin).
Series [6] has as its target Mitogen-activated protein kinase kinase kinase kinase 4 (Homo sapiens, UniProt O95819). The series is described as follows: Inhibition of MAP4K4 (unknown origin).
In series [7] the target is Macrophage colony-stimulating factor 1 receptor (Homo sapiens, UniProt P07333). The series is described as follows: Inhibition of CSF1R (unknown origin).
The target of another series is Aurora kinase A (Homo sapiens, UniProt O14965). The series is described as follows: Inhibition of Aurora A (unknown origin).
Aurora kinase A, sequence (O14965 whole entry): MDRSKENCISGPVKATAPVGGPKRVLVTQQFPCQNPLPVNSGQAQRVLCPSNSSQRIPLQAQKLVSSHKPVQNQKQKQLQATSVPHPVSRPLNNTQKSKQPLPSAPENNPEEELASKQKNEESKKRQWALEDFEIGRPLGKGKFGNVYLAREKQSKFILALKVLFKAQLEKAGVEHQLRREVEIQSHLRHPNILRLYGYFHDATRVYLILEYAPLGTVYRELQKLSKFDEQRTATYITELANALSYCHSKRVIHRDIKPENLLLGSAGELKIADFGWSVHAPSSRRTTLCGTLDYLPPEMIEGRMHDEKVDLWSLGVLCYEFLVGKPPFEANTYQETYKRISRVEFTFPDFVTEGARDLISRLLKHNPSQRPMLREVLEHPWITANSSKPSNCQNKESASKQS

Aurora kinase B, sequence (Q96GD4 whole entry): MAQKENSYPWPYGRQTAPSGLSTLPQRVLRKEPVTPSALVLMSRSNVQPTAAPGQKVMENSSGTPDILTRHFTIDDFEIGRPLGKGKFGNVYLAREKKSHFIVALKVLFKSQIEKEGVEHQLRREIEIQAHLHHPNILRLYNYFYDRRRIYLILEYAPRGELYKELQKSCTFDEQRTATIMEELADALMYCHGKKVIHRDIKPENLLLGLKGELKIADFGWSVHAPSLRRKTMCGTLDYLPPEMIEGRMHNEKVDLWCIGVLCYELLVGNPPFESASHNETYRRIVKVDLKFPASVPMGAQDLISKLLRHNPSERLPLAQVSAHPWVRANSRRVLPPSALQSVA
Epidermal growth factor receptor, sequence (P00533 whole entry): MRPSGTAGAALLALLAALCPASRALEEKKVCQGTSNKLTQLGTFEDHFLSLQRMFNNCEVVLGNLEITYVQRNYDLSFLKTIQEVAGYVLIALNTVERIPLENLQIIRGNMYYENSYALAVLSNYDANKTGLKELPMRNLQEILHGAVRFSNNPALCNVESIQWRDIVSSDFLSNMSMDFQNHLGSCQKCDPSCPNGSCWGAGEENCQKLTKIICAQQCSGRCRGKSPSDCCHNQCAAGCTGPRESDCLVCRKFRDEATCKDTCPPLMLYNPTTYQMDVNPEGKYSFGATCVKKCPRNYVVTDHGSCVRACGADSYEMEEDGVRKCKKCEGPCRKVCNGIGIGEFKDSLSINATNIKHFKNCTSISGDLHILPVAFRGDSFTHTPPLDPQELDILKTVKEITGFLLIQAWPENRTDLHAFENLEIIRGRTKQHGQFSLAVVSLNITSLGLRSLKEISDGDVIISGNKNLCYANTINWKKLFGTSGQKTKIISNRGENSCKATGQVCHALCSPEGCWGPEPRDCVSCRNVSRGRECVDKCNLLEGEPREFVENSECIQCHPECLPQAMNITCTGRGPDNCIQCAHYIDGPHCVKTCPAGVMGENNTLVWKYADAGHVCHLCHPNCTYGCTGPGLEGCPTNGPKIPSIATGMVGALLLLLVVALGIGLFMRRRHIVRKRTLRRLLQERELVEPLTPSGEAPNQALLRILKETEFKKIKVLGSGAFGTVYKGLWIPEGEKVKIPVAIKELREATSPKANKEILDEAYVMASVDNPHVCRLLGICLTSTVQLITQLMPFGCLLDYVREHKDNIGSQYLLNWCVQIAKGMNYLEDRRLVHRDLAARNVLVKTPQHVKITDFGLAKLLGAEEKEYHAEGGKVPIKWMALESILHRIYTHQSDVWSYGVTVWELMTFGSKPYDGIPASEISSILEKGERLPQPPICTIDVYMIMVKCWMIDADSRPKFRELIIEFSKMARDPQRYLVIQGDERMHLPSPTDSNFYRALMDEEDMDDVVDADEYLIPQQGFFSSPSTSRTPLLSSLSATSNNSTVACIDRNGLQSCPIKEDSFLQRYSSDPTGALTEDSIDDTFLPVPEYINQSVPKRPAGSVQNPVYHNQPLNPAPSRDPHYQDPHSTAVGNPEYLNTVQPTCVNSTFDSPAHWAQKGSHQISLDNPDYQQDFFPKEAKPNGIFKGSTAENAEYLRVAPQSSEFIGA
Serine/threonine-protein kinase Nek2, sequence (P51955 whole entry): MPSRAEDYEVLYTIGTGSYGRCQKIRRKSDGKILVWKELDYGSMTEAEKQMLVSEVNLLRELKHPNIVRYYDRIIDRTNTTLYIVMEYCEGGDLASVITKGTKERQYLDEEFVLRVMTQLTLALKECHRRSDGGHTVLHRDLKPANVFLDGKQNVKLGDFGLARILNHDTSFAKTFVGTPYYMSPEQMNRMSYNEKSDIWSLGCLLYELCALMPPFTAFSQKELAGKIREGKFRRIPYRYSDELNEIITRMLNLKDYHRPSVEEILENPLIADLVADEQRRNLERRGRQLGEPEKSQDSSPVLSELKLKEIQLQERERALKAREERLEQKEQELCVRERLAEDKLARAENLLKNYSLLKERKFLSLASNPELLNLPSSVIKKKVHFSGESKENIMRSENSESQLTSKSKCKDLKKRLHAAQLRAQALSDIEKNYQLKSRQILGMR
Macrophage colony-stimulating factor 1 receptor, sequence (P07333 whole entry): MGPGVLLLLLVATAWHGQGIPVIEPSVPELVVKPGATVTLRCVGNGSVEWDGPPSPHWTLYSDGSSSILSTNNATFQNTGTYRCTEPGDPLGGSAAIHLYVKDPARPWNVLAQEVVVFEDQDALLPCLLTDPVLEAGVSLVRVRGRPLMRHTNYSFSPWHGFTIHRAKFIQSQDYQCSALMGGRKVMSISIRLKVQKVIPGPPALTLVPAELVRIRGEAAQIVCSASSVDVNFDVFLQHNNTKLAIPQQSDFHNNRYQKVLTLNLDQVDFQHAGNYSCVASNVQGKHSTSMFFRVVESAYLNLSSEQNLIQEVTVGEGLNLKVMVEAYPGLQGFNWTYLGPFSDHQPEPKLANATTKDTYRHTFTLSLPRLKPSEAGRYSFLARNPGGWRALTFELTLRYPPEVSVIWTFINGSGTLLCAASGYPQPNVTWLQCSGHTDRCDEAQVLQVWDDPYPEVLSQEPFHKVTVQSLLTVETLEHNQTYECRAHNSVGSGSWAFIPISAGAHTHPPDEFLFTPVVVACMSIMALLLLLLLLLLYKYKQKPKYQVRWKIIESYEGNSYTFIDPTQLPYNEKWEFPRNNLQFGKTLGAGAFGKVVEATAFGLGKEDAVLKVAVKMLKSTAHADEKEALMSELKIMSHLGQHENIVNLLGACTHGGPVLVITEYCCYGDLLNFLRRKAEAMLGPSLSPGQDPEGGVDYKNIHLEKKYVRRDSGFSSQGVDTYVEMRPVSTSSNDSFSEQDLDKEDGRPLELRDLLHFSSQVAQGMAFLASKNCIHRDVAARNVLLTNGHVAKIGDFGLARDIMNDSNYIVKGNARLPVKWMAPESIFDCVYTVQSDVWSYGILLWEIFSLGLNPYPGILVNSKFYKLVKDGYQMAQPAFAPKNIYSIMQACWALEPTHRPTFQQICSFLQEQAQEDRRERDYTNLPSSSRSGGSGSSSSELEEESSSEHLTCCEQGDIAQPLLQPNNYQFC

As for `O=C(Cc1ccc(-c2ncnc3ccsc23)cc1)N[C@@H]1CCCC[C@H]1O`, the IC50 in the series with KM12 was more than 200 µM. For the same compound, the inhibition in series [1] turned out to be 18%.
Turning to `CS(=O)(=O)c1ccc(-c2cc3ncnc(Nc4ccc(CC(=O)Nc5ccc(F)c(Cl)c5)cc4)c3s2)cc1`, in series [2], the IC50 was found to be 200 µM.
`C#Cc1cccc(NC(=O)Cc2ccc(Nc3ncnc4ccsc34)cc2)c1`: the values for the IC50 (in series [2]; in the series on KM12) were 22.6 µM and 38.8 µM, respectively.
For `O=C(c1ccc(Nc2ncnc3ccsc23)cc1)N1CCCCC1`, the half-inhibitory concentration (IC50) in the series on KM12 came out at 150 µM. The inhibition in [1] was 16.5%.
As to `Cn1cc(-c2cc3ncnc(Nc4ccc(CC(=O)Nc5cc(C(C)(C)C)nn5C)cc4)c3s2)cn1`, the half-maximal inhibitory concentration (IC50) in [3] is more than 200 µM; in [5] it was 176 µM; against Aurora kinase B it was 1.99 µM; in series [6], 41.5 µM; in series [7] it was 13.6 µM; against Aurora kinase A, 0.893 µM. In addition, the Papp at 2 h, 10 µM in series [4] is 50.5 ×10⁻⁶ cm/s.
`O=C(Cc1ccc(Nc2ncnc3ccsc23)cc1)N[C@H]1CCCC[C@@H]1O`: the IC50 in series [2] was 40.5 µM; in the series on KM12 it was more than 200 µM.
With `CN1CCN(c2ccc(C(=O)Nc3n[nH]c4ccc(Cc5cc(F)cc(F)c5)cc34)c(NC3CCOCC3)c2)CC1` [ENTRECTINIB], the Papp at 2 h, 10 µM in [4] was 17 ×10⁻⁶ cm/s. The concentration for half-maximal inhibition (IC50) in the series with KM12 was 0.012 µM.
